From US20080008724A1 (Statens Serum Institute, priority 2006, published 2008)

B1: TB10.4: protein expressed by M. tuberculosis, recombinant (SEQ ID NO: 2) (protein, listed as Mycobacterium tuberculosis)
chain: MSQIMYNYPAMLGHAGDMAGYAGTLQSLGAEIAVEQAALQSAWQGDTGITYQAWQAQWNQAMEDLVRAYHAMSSTHEANTMAMMARDTAEAAKWGGX
modifications: X not resolved here

Tested on: IFN-γ producing T cells
Experiment: IFN-γ secretion (ELISA) of blood cells from mice vaccinated with TB10.4 antigens, stimulated with TB10.4 peptides
Assay type: in vivo
Details: for specific T-cell response (IFN-γ secretion, ELISA) after vaccination with the individual peptide: mice vaccinated three times with individual TB10.4 peptide in DDA/TDB, cells stimulated with 0.5 μg/ml of the same peptide

Molecule	specific T-cell response (IFN-γ secretion, ELISA) after vaccination with the individual peptide	T-cell recognition of TB10.4 peptides P1-P9 (IFN-γ secretion, ELISA) after vaccination (mice vaccinated 3 times at 2-week intervals in DDA/TDB, blood cells two weeks after final vaccination, stimulated with 0.5 μg/ml of individual peptides)
TB10.4-P3: amino acids 21 to 38 of SEQ ID NO: 2 (YAGTLQSLGAEIAVEQAA; listed as Mycobacterium tuberculosis)	induced a specific T-cell response	
TB10.4-P1: amino acids 1 to 18 of SEQ ID NO: 2 (MSQIMYNYPAMLGHAGDM; listed as Mycobacterium tuberculosis)	induced a specific T-cell response	
B1		mainly induced P3 specific T cells
